For one assay, the target named is human FLAP (Homo sapiens (Human), UniProt P20292). The assay is described as follows: FLAP binding assay (HTRF format). As to conditions: human FLAP-containing Sf-9 membranes, wild type; average of runs. As to the method:
(§1) The ability of the compounds of the present invention to treat a FLAP-mediated disease and/or disorder, or associated symptoms or complications thereof, was determined using the following procedures. Binding assay data represent the average value obtained from two different assay plates, with samples run in duplicate on each plate. Human whole blood assay data represent a single replicate on an assay plate using whole blood from at least one healthy donor.
The assay below is used to test the modulatory activity of compounds against FLAP. Human and mouse FLAP-encoding DNA was amplified by polymerase chain reaction and cloned into pFastBac1 (Invitrogen) with a NH2-terminal 6-His tag for expression in Spodoptera frugiperda (Sf-9) cells. FLAP-containing membranes were prepared as was a FITC-labeled FLAP modulator (3-(3-(tert-butylthio)-1-(4-chlorobenzyl)-5-(quinolin-2-ylmethoxy)-1H-indol-2-yl)-2,2-dimethylpropanoic acid). The FLAP binding assay is performed in HTRF format (homogeneous time resolved fluorescence). […] The reaction is allowed to proceed for two hours after which the plate is read on an Envision plate reader in HTRF mode. Data are expressed as a HTRF ratio.
For human FLAP binding assays, data are analyzed with 3DX Explorer software. […] For analysis, data from multiple runs are averaged and each compound may be tested in 2 to 20 runs. Each run comprises two plates and each plate includes duplicates. Data from each plate is averaged and data are imported into 3DX. The data from multiple runs are aggregated as the average of duplicates of the calculated ratios in order to calculate Ki and IC50 values. Numbers in parentheses are the number of runs for the assay.
On the technique in general: Time-resolved FRET reads energy transfer from a long-lived donor to a nearby acceptor.

Assay [1] deals with leukotriene pathway in human whole blood. The experiment in a line: Human whole blood assay (LTB4, A23187-stimulated). It counts as cell-based. The following applies: Homo sapiens, 0.5 h, human whole blood diluted 1:1 in RPMI, calcium ionophore A23187 7 μg/mL, 30 min. How it is done: as §1
An in vitro cellular assay was performed using human whole blood collected in heparin-containing tubes, which was used to test the ability of compounds to modulate the leukotriene pathway in human whole blood. The blood was diluted 1:1 in RPMI medium, pre-incubated for 15 min at 37° Celsius with test compounds at various concentrations, and then stimulated with calcium ionophore, A23187 (7 μg/mL), for 30 min at 37° Celsius. The samples were then centrifuged and plasma was removed. The plasma was diluted in assay buffer and LTB4 levels were measured using a commercial kit (Enzo Life Sciences). The concentration of each compound that was required for half-maximal inhibition (modulation) of […] (IC50) was calculated by a 4-parameter equation using the program GraphPad Prism (GraphPad software). For analysis, data are imported into 3DX and aggregated as the average of duplicates of the calculated ratios in order to calculate Ki and IC50 values. Numbers in parentheses are the number of runs for the assay.

One may read the Ki as the equilibrium dissociation constant of an inhibitor or competing ligand from its target. Low readings indicate tighter binding, high ones weaker binding. The term IC50 denotes the concentration needed to halve the response being measured.

Bounds are passed on as bounds.

Sequence of human FLAP (P20292 whole entry): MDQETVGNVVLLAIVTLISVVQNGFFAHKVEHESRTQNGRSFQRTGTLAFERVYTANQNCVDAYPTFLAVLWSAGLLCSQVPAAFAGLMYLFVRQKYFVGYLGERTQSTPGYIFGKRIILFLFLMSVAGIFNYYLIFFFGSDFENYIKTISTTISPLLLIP

In the case of `Cc1cnc(COc2ccc3nc(CC(C)(C)C(=O)O)n(Cc4cccc(Br)c4)c3c2)c(F)c1` [Example 191, 3-{1-(3-Bromobenzyl)-6-[(3-fluoro-5-methylpyridin-2-yl)methoxy]-1H-benzimidazol-2-yl}-2,2-dimethylpropanoic acid], on human FLAP, affinity was put at a Ki of 70 nM. The IC50 in assay [1] is greater than 10000 nM.

`Cc1cnc(COc2ccc3nc(C4CCCC[C@H]4C(=O)O)n(Cc4ccc(N5CCC(C(F)(F)F)CC5)cc4F)c3c2)c(F)c1` (mixture of isomers) [Example 192, racemic cis-2-(6-[(3-Fluoro-5-methylpyridin-2-yl)methoxy]-1-{2-fluoro-4-[4-(trifluoromethyl)piperidin-1-yl]benzyl}-1H-benzimidazol-2-yl)cyclohexanecarboxylic acid] had a Ki at human FLAP of 0.95 nM. The concentration for half-maximal inhibition (IC50) in assay [1] worked out at 110 nM.

For the origin of these results see patent US9695149B2, “1,2,6-substituted benzimidazoles as flap modulators” (JANSSEN PHARMACEUTICA NV, priority 2013, dated 2017).
